In US12102648B2, “Orally-bioavailable nucleoside analogs” (priority 2021, dated 2024) one finds Papp A→B, Papp B→A and efflux ratio data, which are given here for 20 molecules.

Like-named read-outs stand apart in the source and are kept apart here.

The nature of the data set: in vitro. The following applies: human. The class given is in vitro ADME. A digest of the protocol:
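Permeability measured in both directions across 19-day Caco-2 layers with TEER above 600 […], incubated at 37° C without shaking; donor and receiver sampled at 10 and 90 min for LC/MS/MS. Derived values: Papp (cm/s), efflux ratio, recovery.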

The mark [1] stands for this setting: Caco-2 monolayer, apical to basolateral, 90-minute incubation, read-out: Papp, A-B.
[2] abbreviates: Caco-2 monolayer, basolateral to apical, 90-minute incubation, read-out: Papp, B-A.
Setting [3] is: Caco-2 monolayer, ER>2 indicates potential efflux transporter substrate, read-out: ER (efflux ratio).

As for `CCCCC(=O)Nc1ncnn2c([C@]3(C#N)O[C@H](COC(=O)Cc4ccccc4)[C@@H](O)[C@H]3O)ccc12` [Compound 277, ((2R,3S,4R,5R)-5-cyano-3,4-dihydroxy-5-(4-pentanamidopyrrolo[2,1-f][1,2,4]triazin-7-yl)tetrahydrofuran-2-yl)methyl 2-phenylacetate], under setting [1], the Papp A→B at 90 min is 0.47 ×10⁻⁶ cm/s. Besides, the Papp B→A at 90 min under setting [2] amounted to 5.4 ×10⁻⁶ cm/s. In addition, the efflux ratio at 90 min under setting [3] amounted to 12.

As to `C[C@H]1CC[C@H](CC(=O)OC[C@H]2O[C@@](C#N)(c3ccc4c(N)ncnn34)[C@H](O)[C@@H]2O)CC1` [Compound 278, ((2R,3S,4R,5R)-5-(4-aminopyrrolo[2,1-f][1,2,4]triazin-7-yl)-5-cyano-3,4-dihydroxytetrahydrofuran-2-yl)methyl 2-((1r,4R)-4-methylcyclohexyl)acetate], where the note is “Caco-2”, the Papp A→B at 90 min was 2.2 ×10⁻⁶ cm/s, the Papp B→A at 90 min was 4.9 ×10⁻⁶ cm/s and the efflux ratio at 90 min was found to be 2.2.

On to `N#C[C@@]1(c2ccc3c(N)ncnn23)O[C@H](COC(=O)CC2CCC3(CCCC3)CC2)[C@@H](O)[C@H]1O` [Compound 279, ((2R,3S,4R,5R)-5-(4-aminopyrrolo[2,1-f][1,2,4]triazin-7-yl)-5-cyano-3,4-dihydroxytetrahydrofuran-2-yl)methyl 2-(spiro[4.5]decan-8-yl)acetate], for which, where the note is “Caco-2”, the apparent permeability from apical to basolateral (Papp A→B) at 90 min was 1.4 ×10⁻⁶ cm/s, the basolateral-to-apical permeability (Papp B→A) at 90 min amounted to 0.9 ×10⁻⁶ cm/s and the efflux ratio at 90 min came to 0.64.

Regarding `N#C[C@@]1(c2ccc3c(N)ncnn23)O[C@H](COC(=O)CC2CCS(=O)(=O)CC2)[C@@H](O)[C@H]1O` [Compound 280, ((2R,3S,4R,5R)-5-(4-aminopyrrolo[2,1-f][1,2,4]triazin-7-yl)-5-cyano-3,4-dihydroxytetrahydrofuran-2-yl)methyl 2-(1,1-dioxidotetrahydro-2H-thiopyran-4-yl)acetate], where the note is “Caco-2”, the Papp A→B at 90 min came to 0.38 ×10⁻⁶ cm/s, the Papp B→A at 90 min was 0.91 ×10⁻⁶ cm/s and the efflux ratio at 90 min was 2.4.

In the case of `C[C@H](C(=O)OC[C@H]1O[C@@](C#N)(c2ccc3c(N)ncnn23)[C@H](O)[C@@H]1O)C1CCCCC1` [Compound 281, ((2R,3S,4R,5R)-5-(4-aminopyrrolo[2,1-f][1,2,4]triazin-7-yl)-5-cyano-3,4-dihydroxytetrahydrofuran-2-yl)methyl (S)-2-cyclohexylpropanoate], for the setting “Caco-2”, the Papp A→B at 90 min is 13 ×10⁻⁶ cm/s, the Papp B→A at 90 min is 29 ×10⁻⁶ cm/s and the efflux ratio at 90 min came to 2.3.

With `CCCCC(=O)Nc1ncnn2c([C@]3(C#N)O[C@H](COC(=O)CC)[C@@H](O)[C@H]3O)ccc12` [Compound 282, ((2R,3S,4R,5R)-5-cyano-3,4-dihydroxy-5-(4-pentanamidopyrrolo[2,1-f][1,2,4]triazin-7-yl)tetrahydrofuran-2-yl)methyl propionate], the Papp A→B at 90 min under setting [1] was determined as 0.72 ×10⁻⁶ cm/s. Under setting [2], the Papp B→A at 90 min was found to be 4.1 ×10⁻⁶ cm/s. Moreover, the efflux ratio at 90 min under setting [3] came out at 5.6.

As for `CCCCC(=O)Nc1ncnn2c([C@]3(C#N)O[C@H](COC(=O)CC(C)C)[C@@H](O)[C@H]3O)ccc12` [Compound 283, ((2R,3S,4R,5R)-5-cyano-3,4-dihydroxy-5-(4-pentanamidopyrrolo[2,1-f][1,2,4]triazin-7-yl)tetrahydrofuran-2-yl)methyl 3-methylbutanoate], where the note is “Caco-2”, the Papp A→B at 90 min was 3 ×10⁻⁶ cm/s, the Papp B→A at 90 min worked out at 1 ×10⁻⁶ cm/s and the efflux ratio at 90 min was determined as 0.34.

Turning to `CCCCC(=O)Nc1ncnn2c([C@]3(C#N)O[C@H](COC(=O)CC4CCCCC4)[C@@H](O)[C@H]3O)ccc12` [Compound 284, ((2R,3S,4R,5R)-5-cyano-3,4-dihydroxy-5-(4-pentanamidopyrrolo[2,1-f][1,2,4]triazin-7-yl)tetrahydrofuran-2-yl)methyl 2-cyclohexylacetate], under “Caco-2”, the apparent permeability from apical to basolateral (Papp A→B) at 90 min amounted to 1.7 ×10⁻⁶ cm/s, the Papp B→A at 90 min is 0.95 ×10⁻⁶ cm/s and the efflux ratio at 90 min was 0.56.

`N#C[C@@]1(c2ccc3c(NC(=O)c4ccccc4)ncnn23)O[C@H](COC(=O)CC2CCCCC2)[C@@H](O)[C@H]1O` [Compound 285, ((2R,3S,4R,5R)-5-(4-benzamidopyrrolo[2,1-f][1,2,4]triazin-7-yl)-5-cyano-3,4-dihydroxytetrahydrofuran-2-yl)methyl 2-cyclohexylacetate]: under “Caco-2”, the Papp A→B at 90 min was 1.1 ×10⁻⁶ cm/s, the apparent permeability from basolateral to apical (Papp B→A) at 90 min is 0.9 ×10⁻⁶ cm/s and the efflux ratio at 90 min came out at 0.83.

In the case of `N#C[C@@]1(c2ccc3c(N)ncnn23)O[C@H](COC(=O)CC2(N)CCCCC2)[C@@H](O)[C@H]1O` [Compound 286, ((2R,3S,4R,5R)-5-(4-aminopyrrolo[2,1-f][1,2,4]triazin-7-yl)-5-cyano-3,4-dihydroxytetrahydrofuran-2-yl)methyl 2-(1-aminocyclohexyl)acetate], for the setting “Caco-2”, the Papp A→B at 90 min worked out at 0.01 ×10⁻⁶ cm/s, the apparent permeability from basolateral to apical (Papp B→A) at 90 min turned out to be 0.4 ×10⁻⁶ cm/s and the efflux ratio at 90 min was 67.

`COC1(CC(=O)OC[C@H]2O[C@@](C#N)(c3ccc4c(N)ncnn34)[C@H](O)[C@@H]2O)CCCCC1` [Compound 287, ((2R,3S,4R,5R)-5-(4-aminopyrrolo[2,1-f][1,2,4]triazin-7-yl)-5-cyano-3,4-dihydroxytetrahydrofuran-2-yl)methyl 2-(1-methoxycyclohexyl)acetate]: under “Caco-2”, the Papp A→B at 90 min amounted to 5.2 ×10⁻⁶ cm/s, the Papp B→A at 90 min turned out to be 13 ×10⁻⁶ cm/s and the efflux ratio at 90 min was 2.4.

As for `CCCCC(=O)Nc1ncnn2c([C@]3(C#N)O[C@H](COC(C)=O)[C@@H](O)[C@H]3O)ccc12` [Compound 288, ((2R,3S,4R,5R)-5-cyano-3,4-dihydroxy-5-(4-pentanamidopyrrolo[2,1-f][1,2,4]triazin-7-yl)tetrahydrofuran-2-yl)methyl acetate], where the note is “Caco-2”, the Papp A→B at 90 min is 0.91 ×10⁻⁶ cm/s, the basolateral-to-apical permeability (Papp B→A) at 90 min stood at 6.9 ×10⁻⁶ cm/s and the efflux ratio at 90 min was 7.7.

As to `N#C[C@@]1(c2ccc3c(N)ncnn23)O[C@H](COC(=O)C2(c3ccccc3)CC2)[C@@H](O)[C@H]1O` [Compound 289, ((2R,3S,4R,5R)-5-(4-aminopyrrolo[2,1-f][1,2,4]triazin-7-yl)-5-cyano-3,4-dihydroxytetrahydrofuran-2-yl)methyl 1-phenylcyclopropane-1-carboxylate], under “Caco-2”, the Papp A→B at 90 min was determined as 6.4 ×10⁻⁶ cm/s, the Papp B→A at 90 min was 25 ×10⁻⁶ cm/s and the efflux ratio at 90 min is 3.8.

As for `CN(C(=O)CC1CCCCC1)c1nc(N)nc2c1ncn2[C@@H]1O[C@H](COC(=O)CC2CCCCC2)[C@@H](O)[C@@]1(C)F` [Compound 291, ((2R,3R,4R,5R)-5-(2-amino-6-(2-cyclohexyl-N-methylacetamido)-9H-purin-9-yl)-4-fluoro-3-hydroxy-4-methyltetrahydrofuran-2-yl)methyl 2-cyclohexylacetate], under “Caco-2”, the Papp A→B at 90 min amounted to 11 ×10⁻⁶ cm/s, the Papp B→A at 90 min amounted to 17 ×10⁻⁶ cm/s and the efflux ratio at 90 min came to 1.6.

`CNc1nc(NC(=O)CC2CCCCC2)nc2c1ncn2[C@@H]1O[C@H](COC(=O)CC2CCCCC2)[C@@H](O)[C@@]1(C)F` [Compound 292, ((2R,3R,4R,5R)-5-(2-(2-cyclohexylacetamido)-6-(methylamino)-9H-purin-9-yl)-4-fluoro-3-hydroxy-4-methyltetrahydrofuran-2-yl)methyl 2-cyclohexylacetate]: for the setting “Caco-2”, the Papp A→B at 90 min is 2 ×10⁻⁶ cm/s, the Papp B→A at 90 min was found to be 1 ×10⁻⁶ cm/s and the efflux ratio at 90 min is 0.5.

Turning to `CNc1nc(N)nc2c1ncn2[C@@H]1O[C@H](COC(=O)CC(C)C)[C@@H](OC(=O)CC(C)C)[C@@]1(C)F` [Compound 312, (2R,3R,4R,5R)-5-(2-amino-6-(methylamino)-9H-purin-9-yl)-4-fluoro-4-methyl-2-(((3-methylbutanoyl)oxy)methyl)tetrahydrofuran-3-yl 3-methylbutanoate], for the setting “Caco-2”, the Papp A→B at 90 min is 23 ×10⁻⁶ cm/s, the Papp B→A at 90 min came out at 6.5 ×10⁻⁶ cm/s and the efflux ratio at 90 min was 0.28.

`CCC(=O)O[C@@H]1[C@@H](COC(C)=O)O[C@@H](n2cnc3c(NC)nc(N)nc32)[C@]1(C)F` [Compound 329, (2R,3R,4R,5R)-2-(acetoxymethyl)-5-(2-amino-6-(methylamino)-9H-purin-9-yl)-4-fluoro-4-methyltetrahydrofuran-3-yl propionate]: for the setting “Caco-2”, the Papp A→B at 90 min was 16 ×10⁻⁶ cm/s, the apparent permeability from basolateral to apical (Papp B→A) at 90 min stood at 18 ×10⁻⁶ cm/s and the efflux ratio at 90 min was determined as 1.1.

As to `CCC(=O)Nc1nc(NC)c2ncn([C@@H]3O[C@H](COC(C)=O)[C@@H](O)[C@@]3(C)F)c2n1` [Compound 330, ((2R,3R,4R,5R)-4-fluoro-3-hydroxy-4-methyl-5-(6-(methylamino)-2-propionamido-9H-purin-9-yl)tetrahydrofuran-2-yl)methyl acetate], where the note is “Caco-2”, the Papp A→B at 90 min amounted to 0.54 ×10⁻⁶ cm/s, the Papp B→A at 90 min stood at 7 ×10⁻⁶ cm/s and the efflux ratio at 90 min was 13.

For `CCC(=O)Nc1nc(NC)c2ncn([C@@H]3O[C@H](COC(C)=O)[C@@H](OC(=O)CC)[C@@]3(C)F)c2n1` [Compound 331, (2R,3R,4R,5R)-2-(acetoxymethyl)-4-fluoro-4-methyl-5-(6-(methylamino)-2-propionamido-9H-purin-9-yl)tetrahydrofuran-3-yl propionate], where the note is “Caco-2”, the Papp A→B at 90 min is 7.9 ×10⁻⁶ cm/s, the Papp B→A at 90 min was 16 ×10⁻⁶ cm/s and the efflux ratio at 90 min amounted to 2.1.

With `CNc1nc(NC(=O)CC(C)C)nc2c1ncn2[C@@H]1O[C@H](COC(C)=O)[C@@H](OC(=O)CC(C)C)[C@@]1(C)F` [Compound 332, (2R,3R,4R,5R)-2-(acetoxymethyl)-4-fluoro-4-methyl-5-(6-(methylamino)-2-(3-methylbutanamido)-9H-purin-9-yl)tetrahydrofuran-3-yl 3-methylbutanoate], where the note is “Caco-2”, the Papp A→B at 90 min stood at 11 ×10⁻⁶ cm/s, the Papp B→A at 90 min stood at 2.6 ×10⁻⁶ cm/s and the efflux ratio at 90 min worked out at 0.22.
